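Following 48 hours of exposure in 96-well plates, responses at five concentrations were used to interpolate endpoints linearly. GI50 is the concentration that inhibits growth by half. TGI is the concentration that stops growth completely.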
What was measured:
Assay in all cases: NCI tumour cell line growth inhibition, 48 h; in the data active = GI50 below about 0.43 µM; inactive = the rest
[1] = test system: M14 melanoma
[2] = test system: U251 CNS
[3] = test system: LOX IMVI melanoma
[4] = test system: A549 NSCLC
[5] = test system: NCI-H460 lung
[6] = test system: SK-MEL-5 melanoma
[7] = test system: 786-0 renal
[8] = test system: OVCAR-4 ovarian
[9] = test system: COLO 205 colon
[10] = test system: HCC-2998 colon
[11] = test system: T-47D breast
[12] = test system: HS 578T breast
[13] = test system: EKVX NSCLC
[14] = test system: K-562 leukemia
[15] = test system: MALME-3M melanoma
[16] = test system: OVCAR-8 ovarian
[17] = test system: SNB-75 CNS
[18] = test system: TK-10 renal
[19] = test system: SN12C renal
[20] = test system: CCRF-CEM leukemia
[21] = test system: UACC-257 melanoma
[22] = test system: HT29 colon
[23] = test system: DU-145 prostate
[24] = test system: A498 renal
[25] = test system: SW-620 colon
[26] = test system: SK-MEL-28 melanoma
[27] = test system: ACHN renal
[28] = test system: CAKI-1 renal
[29] = test system: RPMI-8226 leukemia
[30] = test system: OVCAR-5 ovarian
[31] = test system: NCI-H522 lung
[32] = test system: SK-MEL-2 melanoma
[33] = test system: PC-3 prostate
[34] = test system: SNB-19 CNS
[35] = test system: BT-549 breast
[36] = test system: MCF7 breast
[37] = test system: HOP-92 NSCLC
[38] = test system: NCI-H226 lung
[39] = test system: SF-268 CNS
[40] = test system: MDA-MB-435
[41] = test system: RXF 393 renal
[42] = test system: NCI/ADR-RES ovarian
[43] = test system: UO-31 renal
[44] = test system: MDA-MB-231 breast
[45] = test system: NCI-H23 lung
[46] = test system: KM12 colon
[47] = test system: IGROV1 ovarian
[48] = test system: UACC-62 melanoma
[49] = test system: SK-OV-3 ovarian
[50] = test system: HOP-62 NSCLC
[51] = test system: SF-539 CNS
[52] = test system: SF-295 CNS
[53] = test system: HCT-15 colon
[54] = test system: OVCAR-3 ovarian

C=C(C)[C@@H]1CC[C@]2(C)[C@H](CC=C3[C@@H]4CC(C)(C)CC[C@]4(C(N)=O)CC[C@]32C)[C@@]1(C)CCC#N
> 100 µM: TGI [1] | TGI [2] | TGI [3] | TGI [4] | TGI [8] | TGI [10] | TGI [11] | TGI [13] | TGI [14] | TGI [16] | TGI [18] | TGI [20] | TGI [21] | TGI [22] | TGI [23] | TGI [26] | TGI [28] | TGI [30] | TGI [31] | TGI [32] | TGI [33] | TGI [34] | TGI [39] | TGI [42] | TGI [44] | TGI [45] | TGI [47] | TGI [49] | TGI [50] | TGI [52] | TGI [53] | TGI [54]
5.54 µM: TGI [29]
7.36 µM: TGI [9]
5.11 µM: TGI [41]
30.1 µM: TGI [25]
8.62 µM: TGI [5]
6.62 µM: TGI [37]
inactive: GI50 [1] 3.11 µM | GI50 [2] 4.35 µM | GI50 [3] 3.69 µM | GI50 [4] 4.1 µM | GI50 [5] 2.93 µM | GI50 [6] 1.83 µM | GI50 [7] 2 µM | GI50 [8] 2.56 µM | GI50 [9] 2.6 µM | GI50 [10] 4.02 µM | GI50 [11] 3.27 µM | GI50 [12] 3.28 µM | GI50 [13] 3.6 µM | GI50 [14] 2.54 µM | GI50 [15] 2.24 µM | GI50 [16] 5.24 µM | GI50 [17] 2.33 µM | GI50 [18] 7.32 µM | GI50 [19] 1.84 µM | GI50 [20] 3.02 µM | GI50 [21] 4.09 µM | GI50 [22] 3.48 µM | GI50 [23] 4.8 µM | GI50 [24] 2.16 µM | GI50 [25] 3.21 µM | GI50 [26] 4.17 µM | GI50 [27] 3.01 µM | GI50 [28] 3.01 µM | GI50 [29] 1.94 µM | GI50 [30] 4.35 µM | GI50 [31] 3.07 µM | GI50 [32] 5.28 µM | GI50 [33] 2.37 µM | GI50 [34] 4.05 µM | GI50 [35] 2.09 µM | GI50 [36] 2.81 µM | GI50 [37] 2.37 µM | GI50 [38] 2.94 µM | GI50 [39] 5.28 µM | GI50 [40] 3.21 µM | GI50 [41] 2.34 µM | GI50 [42] 3.75 µM | GI50 [43] 2.55 µM | GI50 [44] 3.96 µM | GI50 [45] 3.66 µM | GI50 [46] 3.1 µM | GI50 [47] 3.92 µM | GI50 [48] 2.59 µM | GI50 [49] 4.62 µM | GI50 [50] 7.44 µM | GI50 [51] 3.04 µM | GI50 [52] 3.91 µM | GI50 [53] 3.14 µM | GI50 [54] 3.49 µM
20.5 µM: TGI [40]
24.5 µM: TGI [36]
4.12 µM: TGI [7]
51.2 µM: TGI [27]
9.15 µM: TGI [48]
14.8 µM: TGI [46]
9.71 µM: TGI [17]
54.6 µM: TGI [12]
7.52 µM: TGI [43]
5.91 µM: TGI [15]
5.53 µM: TGI [35]
5.32 µM: TGI [24]
13.6 µM: TGI [51]
3.31 µM: TGI [6]
9.41 µM: TGI [38]
3.7 µM: TGI [19]

Source: PubChem BioAssay (NCI)
